Results on 27 molecules are retold here after patent US20090069370A1, “AZACYCLYLISOQUINOLINONE AND ISOINDOLINONE DERIVATIVES AS HISTAMINE-3 ANTAGONISTS” (Wyeth, priority 2007, published 2009).

SMILES strings stand for the structures. Where a name gives a salt, the structure may show the parent alone.

Usually melting point stands for the temperature, or range, at which the solid turns liquid. A word on the Ki: it is a measure of affinity in units of concentration, obtained from inhibition or displacement.

T1 sequence (Q9Y5N1 whole entry): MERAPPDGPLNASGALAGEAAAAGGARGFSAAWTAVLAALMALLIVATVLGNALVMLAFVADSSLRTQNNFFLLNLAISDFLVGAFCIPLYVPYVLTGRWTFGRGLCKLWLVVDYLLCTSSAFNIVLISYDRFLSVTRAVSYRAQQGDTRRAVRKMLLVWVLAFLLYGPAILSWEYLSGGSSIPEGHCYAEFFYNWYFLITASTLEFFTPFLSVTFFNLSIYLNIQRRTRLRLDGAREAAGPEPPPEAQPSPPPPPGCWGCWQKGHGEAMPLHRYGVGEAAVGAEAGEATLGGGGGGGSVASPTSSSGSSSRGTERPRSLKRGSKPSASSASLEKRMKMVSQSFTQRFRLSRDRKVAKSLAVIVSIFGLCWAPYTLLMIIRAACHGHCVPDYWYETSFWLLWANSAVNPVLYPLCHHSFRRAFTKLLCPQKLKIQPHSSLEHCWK

Tested on in one data set: not given
Assay: not given
Details: not given
`O=C(O)c1ccc(COc2ccc3c(c2)CCN(C2CCN(C4CCC4)CC2)C3=O)cc1` [Example 14, 4-({[2-(1-cyclobutylpiperidin-4-yl)-1-oxo-1,2,3,4-tetrahydroiso-quinolin-6-yl]oxy}methyl)benzoic acid] had a melting point of 269 to 270 °C.
The molecule `COC(=O)c1ccc(COc2ccc3c(c2)CCN(C2CCN(C4CCC4)CC2)C3=O)cc1` [Example 13, methyl 4-({[2-(1-Cyclobutylpiperidin-4-yl)-1-oxo-1,2,3,4-tetrahydroisoquinolin-6-yl]oxy}methyl)benzoate] yielded a melting point of 165 to 166 °C.

A further data set addresses T1, Human Histamine H3 Receptor (Homo sapiens, UniProt Q9Y5N1).
T1 construct: expressed in transfected cells; host or cells: HEK293T cells, stably transfected; membrane preparation
The data set is described as follows: Methyl histamine binding in human histamine H3 receptor cell line. To be noted: membranes of stably transfected HEK293T cells; radioligand 1 nM; Ki from IC50 by Cheng-Prusoff. The protocol: Evaluation of Methyl Histamine Binding in Human Histamine H3 Receptor Cell Line
The affinity of test compounds for the histamine 3 (H3) receptor is evaluated in the following manner. Stably transfected HEK293T cells are grown in DMEM containing 10% heat inactivated FBS and G-418 (500 ug/ml). Cells are scraped from the plate, transferred to centrifuge tubes, washed one time in PBS by centrifugation in a Sorvall RT7 Plus centrifuge (2000 rpm 10 minutes, 4° C.). The resulting pellets are stored at −80° C. until ready for use. Cells are re-suspended in buffer (50 mM Tris pH=7.5) and placed in a Dounce homogenizer, douncing ten times to homogenize cells. The homogenate is spun down by centrifugation (Sorvall RT7 Plus, 1800 rpm 10 minutes, 4° C.). The supernatant is placed in a Corex tube and spun down by centrifugation (Sorvall RC 5c Plus, 17,000 rpm 20 minutes, 4° C.). The pellet is resuspended in buffer (50 mM Tris, pH 7.5). Protein concentration (ug/ul) is determined using the Micro-BCA Protein Determination. The binding assay is set up in a 96 well microtiter plate in a total volume of 250 uL. Non-specific binding is determined in the presence of 10 uM clobenpropit. The final radioligand concentration is 1 nM. The test compound is serially diluted using the Beckman Biomek2000 to a final approximate range of 100 uM to 100 pM. Membranes are suspended in buffer, homogenized in 2 bursts of ten seconds using a Vitris mechanical homogenizer set at power setting 5. Ten μg of membranes are added to each well. Following a one hour incubation at 30° C., the reaction is terminated by the addition of ice cold buffer and rapid filtration with a Packard Filtermate Harvester through a GF/B filter pre-soaked with 1% PEI for one hour. The plate is dried for one hour at 37° C. and 60 μL Microscint Scintillant is added to each well. The CPM per well is measured on a Packard Top Count NXT. Ki values are determined in nM. The Ki is calculated from the IC50 (i.e. the concentration of competing ligand which displaces 50% of the specific binding of the radioligand). CPM values are expressed as % specific binding and plotted vs compound concentration. A curve is fitted using a four-parameter logistic fit and the IC50 value is determined. The Ki is calculated from this using the Cheng-Prusoff equation: […]=IC50/1+(L/Kd) where L=concentration of free radioligand used in the assay, and Kd is the dissociation constant of the radioligand for the receptor. L is determined for each experiment by counting an aliquot of the diluted radioligand (corresponding to that added to each well) and the Kd has previously been determined under identical conditions for this cell line/radioligand.
Molecule `O=C(O)c1ccc(COc2ccc3c(c2)CCN(C2CCN(C4CCC4)CC2)C3=O)cc1` [Example 14, 4-({[2-(1-cyclobutylpiperidin-4-yl)-1-oxo-1,2,3,4-tetrahydroiso-quinolin-6-yl]oxy}methyl)benzoic acid] showed a Ki of 10.1 to 25 nM.
`COC(=O)c1ccc(COc2ccc3c(c2)CCN(C2CCN(C4CCC4)CC2)C3=O)cc1` [Example 13, methyl 4-({[2-(1-Cyclobutylpiperidin-4-yl)-1-oxo-1,2,3,4-tetrahydroisoquinolin-6-yl]oxy}methyl)benzoate] gave a Ki of 10.1 to 25 nM.
`O=C(NC1CC1)c1ccc(Oc2ccc3c(c2)CCN(C2CCN(C4CCC4)CC2)C3=O)cc1` [Example 7, 4-{[2-(1-Cyclobutylpiperidin-4-yl)-1-oxo-1,2,3,4-tetrahydroisoquinolin-6-yl]oxy}-N-cyclopropylbenzamide] registered an inhibition constant (Ki) of no more than 10 nM.
Same read-out and setting: the result for `CCNC(=O)c1ccc(COc2ccc3c(c2)CCN(C2CCN(C4CCC4)CC2)C3=O)cc1` [Example 17, 4-({[2-(1-Cyclobutylpiperidin-4-yl)-1-oxo-1,2,3,4-tetrahydroisoquinolin-6-yl]oxy}methyl)-N-ethylbenzamide] reads no more than 10 nM; that for `O=C(c1ccc(Oc2ccc3c(c2)CCN([C@@H]2CCN(C4CCC4)C2)C3=O)cc1)N1CCCC1` [Example 35, 2-[(3R)-1-cyclobutylpyrrolidin-3-yl]-6-[4-(pyrrolidin-1-ylcarbonyl)phenoxy]-3,4-dihydroisoquinolin-1(2H)-one], 10.1 to 25 nM.
`O=C(NC1CCC1)c1ccc(-c2ccc3c(c2)CCN([C@@H]2CCN(C4CCC4)C2)C3=O)c(F)c1` [Example 74, N-cyclobutyl-4-{2-[(3R)-1-cyclobutylpyrrolidin-3-yl]-1-oxo-1,2,3,4-tetrahydroisoquinolin-6-yl}-3-fluorobenzamide] showed a Ki of no more than 10 nM.
With `CN(C)C(=O)c1ccc(-c2ccc3c(c2)CCN([C@@H]2CCN(C4CCC4)C2)C3=O)cc1` [Example 46, 4-{2-[(3R)-1-cyclobutylpyrrolidin-3-yl]-1-oxo-1,2,3,4-tetrahydroisoquinolin-6-yl}-N,N-dimethylbenzamide], the inhibition constant Ki was no more than 10 nM.
Same read-out and setting: the result for `CNC(=O)c1ccc(-c2ccc3c(c2)CCN([C@@H]2CCN(C(C)C)C2)C3=O)c(F)c1` [Example 85, 3-fluoro-4-{2-[(3R)-1-isopropylpyrrolidin-3-yl]-1-oxo-1,2,3,4-tetrahydroisoquinolin-6-yl}-N-methylbenzamide] reads no more than 10 nM.
`CC(C)N1CCC(N2CCc3cc(-c4ccc(C(=O)N5CCCC5)cc4)ccc3C2=O)CC1` [Example 67, 2-(1-isopropylpiperidin-4-yl)-6-[4-(pyrrolidin-1-ylcarbonyl)phenyl]-3,4-dihydroisoquinolin-1(2H)-one] came in with a Ki of no more than 10 nM.
`N#Cc1ccc(-c2ccc3c(c2)CN(C2CCNCC2)C3=O)cc1` [Example 22, 4-(1-oxo-2-piperidin-4-yl-2,3-dihydro-1H-isoindol-5-yl)benzonitrile hydrochloride] showed a Ki greater than 100 nM.
On to `CN1CC[C@@H](N2CCc3cc(-c4ccc(C(=O)N5CCCC5)cc4)ccc3C2=O)C1` [Example 55, 2-[(3R)-1-methylpyrrolidin-3-yl]-6-[4-(pyrrolidin-1-ylcarbonyl)phenyl]-3,4-dihydroisoquinolin-1(2H)-one], for which the Ki was in the range of 50.1 to 100 nM.
The molecule `CN(C)C(=O)c1ccc(-c2ccc3c(c2)CCN([C@@H]2CCN(C4CCC4)C2)C3=O)c(F)c1` [Example 78, 4-{2-[(3R)-1-cyclobutylpyrrolidin-3-yl]-1-oxo-1,2,3,4-tetrahydroisoquinolin-6-yl}-3-fluoro-N,N-dimethylbenzamide] yielded an inhibition constant Ki of no more than 10 nM.
The same measure, in the same setting: the result for `O=C(NC1CCCC1)c1ccc(COc2ccc3c(c2)CCN(C2CCN(C4CCC4)CC2)C3=O)cc1` [Example 21, 4-({[2-(1-Cyclobutylpiperidin-4-yl)-1-oxo-1,2,3,4-tetrahydroisoquinolin-6-yl]oxy}methyl)-N-cyclopentylbenzamide] reads no more than 10 nM; that for `O=C(c1ccc(COc2ccc3c(c2)CCN(C2CCN(C4CCC4)CC2)C3=O)cc1)N1CCCC1` [Example 20, 2-(1-Cyclobutylpiperidin-4-yl)-6-{[4-(pyrrolidin-1-ylcarbonyl)benzyl]oxy}-3,4-dihydroisoquinolin-1(2H)-one], no more than 10 nM; that for `N#Cc1ccc(-c2ccc3c(c2)CN(C2CCN(C4CCCC4)CC2)C3=O)cc1` [Example 29, 4-[2-(1-Cyclopentylpiperidin-4-yl)-1-oxo-2,3-dihydro-1H-isoindol-5-yl]benzonitrile], 10.1 to 25 nM.
The molecule `O=C(c1ccc(-c2ccc3c(c2)CCN([C@@H]2CCN(Cc4ccoc4)C2)C3=O)cc1)N1CCCC1` [Example 60, 2-[(3R)-1-(furan-3-ylmethyl)pyrrolidin-3-yl]-6-[4-(pyrrolidin-1-ylcarbonyl)phenyl]-3,4-dihydroisoquinolin-1(2H)-one] came in with a Ki of no more than 10 nM.
Same read-out and setting: the result for `N#Cc1ccc(-c2ccc3c(c2)CN(C2CCN(C4CCCCC4)CC2)C3=O)cc1` [Example 30, 4-[2-(1-Cyclohexylpiperidin-4-yl)-1-oxo-2,3-dihydro-1H-isoindol-5-yl]benzonitrile] reads 25.1 to 50 nM.
Still for that read-out and setting: the result for `CNC(=O)c1ccc(Oc2ccc3c(c2)CCN([C@@H]2CCN(C4CCC4)C2)C3=O)cc1` [Example 33, 4-({2-[(3R)-1-cyclobutylpyrrolidin-3-yl]-1-oxo-1,2,3,4-tetrahydroisoquinolin-6-yl}oxy)-N-methylbenzamide] reads no more than 10 nM.
In turn, `O=C(NC1CC1)c1ccc(-c2ccc3c(c2)CCN([C@@H]2CCN(C4CCC4)C2)C3=O)c(F)c1` [Example 81, 4-{2-[(3R)-1-cyclobutylpyrrolidin-3-yl]-1-oxo-1,2,3,4-tetrahydroisoquinolin-6-yl}-N-cyclopropyl-3-fluorobenzamide] gave a Ki of no more than 10 nM.
With `CC(C)N1CC[C@@H](N2CCc3cc(-c4ccc(C(=O)N5CCCC5)cc4)ccc3C2=O)C1` [Example 56, 2-[(3R)-1-(1-methylethyl)pyrrolidin-3-yl]-6-[4-(pyrrolidin-1-ylcarbonyl)phenyl]-3,4-dihydroisoquinolin-1(2H)-one], the inhibition constant (Ki) is no more than 10 nM.
As to `O=C(c1ccc(-c2ccc3c(c2)CCN([C@@H]2CCN(Cc4cccs4)C2)C3=O)cc1)N1CCCC1` [Example 62, 6-[4-(pyrrolidin-1-ylcarbonyl)phenyl]-2-[(3R)-1-(thiophen-2-ylmethyl)pyrrolidin-3-yl]-3,4-dihydroisoquinolin-1(2H)-one], the inhibition constant (Ki) is 25.1 to 50 nM.
For `CCN1CCC(N2Cc3cc(-c4ccc(C#N)cc4)ccc3C2=O)CC1` [Example 24, 4-[2-(1-Ethylpiperidin-4-yl)-1-oxo-2,3-dihydro-1H-isoindol-5-yl]benzonitrile], the Ki is greater than 100 nM.
`N#Cc1ccc(-c2ccc3c(c2)CN(C2CCN(C4CCC4)CC2)C3=O)cc1` [Example 28, 4-[2-(1-Cyclobutylpiperidin-4-yl)-1-oxo-2,3-dihydro-1H-isoindol-5-yl]benzonitrile] displayed a Ki of 25.1 to 50 nM.
Still for that read-out and setting: the result for `CNC(=O)c1ccc(-c2ccc3c(c2)CCN([C@@H]2CCN(C4CCCC4)C2)C3=O)cc1` [Example 41, 4-{2-[(3R)-1-cyclopentylpyrrolidin-3-yl]-1-oxo-1,2,3,4-tetrahydroisoquinolin-6-yl}-N-methylbenzamide] reads no more than 10 nM.
As for `O=C(c1ccc(-c2ccc3c(c2)CCN([C@@H]2CCN(CC4CC4)C2)C3=O)cc1)N1CCCC1` [Example 58, 2-[(3R)-1-(cyclopropylmethyl)pyrrolidin-3-yl]-6-[4-(pyrrolidin-1-ylcarbonyl)phenyl]-3,4-dihydroisoquinolin-1(2H)-one], the Ki was no more than 10 nM.
Consider `C[C@@H]1CCCN1C(=O)c1ccc(-c2ccc3c(c2)CCN([C@@H]2CCN(C4CCC4)C2)C3=O)c(F)c1` [Example 76, 2-[(3R)-1-cyclobutylpyrrolidin-3-yl]-6-(2-fluoro-4-{[(2R)-2-methylpyrrolidin-1-yl]carbonyl}phenyl)-3,4-dihydroisoquinolin-1(2H)-one], for which the Ki was no more than 10 nM.
`O=C(c1ccc(-c2ccc3c(c2)CCN([C@@H]2CCCN(C4CCCC4)C2)C3=O)cc1)N1CCCC1` [Example 71, 2-[(3R)-1-cyclopentylpiperidin-3-yl]-6-[4-(pyrrolidin-1-ylcarbonyl)phenyl]-3,4-dihydroisoquinolin-1(2H)-one] yielded an inhibition constant Ki of 10.1 to 25 nM.
